# Reference: US4623662A, “Antiatherosclerotic ureas and thioureas” (American Cyanamid Company, priority 1985, dated 1986)
# pIC50: −log10 of the molar value. Read-outs that look alike come from different tables or passages of the source.
# How the values were obtained:
# [1] = test system: cholesterol absorption; test: Inhibition of cholesterol absorption in rats fed 1% cholesterol:0.5% cholic acid diet; type: in vivo, male Sprague-Dawley rats; conditions: po, 336 h, rat, 2 weeks; for response vs control in vivo at 0.03 %: dose .03% of the diet; for response vs control in vivo at 0.01 %: dose .01% of the diet
# How it was run: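 Male Sprague-Dawley rats (150-170 g) fed 1% cholesterol:0.5% cholic acid diet for 2 weeks with compound at 0.001, 0.003, 0.01 or 0.03% of diet. Serum cholesterol measured enzymatically; liver cholesterol from saponified large-lobe sample after petroleum ether extraction. Liver and serum sterol expressed as percent of untreated controls.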
# [2] = molecular target: T1, fatty acyl CoA: cholesterol acyl transferase (ACAT) (Rattus norvegicus, UniProt O70536); test: Inhibition of fatty acyl CoA:cholesterol acyl transferase (ACAT), rat adrenal enzyme; type: biochemical; conditions: for pIC50: several concentrations
# T1 construct: The supernatant, containing the microsomal fraction, served as the source of the cholesterol-esterifying enzyme; from tissue; host or cells: rat adrenals, supernatant of 1,000 x g centrifugation containing the microsomal fraction
# T1 sequence (O70536 1-545): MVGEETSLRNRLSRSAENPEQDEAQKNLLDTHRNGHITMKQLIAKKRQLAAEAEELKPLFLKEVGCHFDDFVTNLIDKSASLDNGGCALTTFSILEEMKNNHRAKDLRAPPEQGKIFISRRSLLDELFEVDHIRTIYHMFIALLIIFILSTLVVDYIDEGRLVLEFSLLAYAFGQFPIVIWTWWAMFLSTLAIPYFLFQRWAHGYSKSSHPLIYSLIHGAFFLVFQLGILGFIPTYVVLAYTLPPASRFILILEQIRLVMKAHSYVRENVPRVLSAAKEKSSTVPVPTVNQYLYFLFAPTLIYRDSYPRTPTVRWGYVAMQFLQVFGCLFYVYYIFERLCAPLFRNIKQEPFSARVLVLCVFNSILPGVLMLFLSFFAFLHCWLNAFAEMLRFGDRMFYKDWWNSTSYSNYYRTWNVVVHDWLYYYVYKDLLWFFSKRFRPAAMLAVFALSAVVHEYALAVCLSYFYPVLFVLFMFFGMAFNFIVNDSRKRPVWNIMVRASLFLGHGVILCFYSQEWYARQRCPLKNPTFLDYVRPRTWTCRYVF
# How it was run: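 Enzyme source was the microsomal supernatant of rat adrenal homogenate (0.2M potassium phosphate, pH 7.4) with BSA, preincubated with compound (5.2 μg/ml final for single-point) for 10 min at 37° C. Then [14C]oleoyl CoA added, 10 min at 37° C. TLC-separated cholesteryl ester was counted; percent inhibition versus control, IC50 from several concentrations.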
# [3] = read-out: LS (liver sterol), percentage of control values
# [4] = read-out: SS (serum sterol), percentage of control values
# [5] = rat adrenal ACAT, final concentration 5.2 μg/ml, read-out: % Inhibition
smiles,measurement,setting,value
"CCCCCCCN(Cc1ccc(CCCC)cc1)C(=O)Nc1cc(C)c(C)cc1C [1-(n-Heptyl)-1-(4-n-butylbenzyl)-3-(2,4,5-trimethylphenyl)urea]",response vs control in vivo at 0.03 %,[1]; [3],10%
same,response vs control in vivo at 0.03 %,[1]; [4],33%
same,inhibition at 5.2 µg/mL,[2]; [5],95.3%
"CCCCCCCN(Cc1ccc(CCCC)cc1)C(=O)Nc1c(Cl)cc(Cl)cc1Cl [1-(n-Heptyl)-1-(4-n-butylbenzyl)-3-(2,4,6-trichlorophenyl)urea]",response vs control in vivo at 0.03 %,[1]; [3],8%
same,response vs control in vivo at 0.03 %,[1]; [4],28%
same,inhibition at 5.2 µg/mL,[2],90%
"CCCCCCCN(Cc1ccc(CCCC)cc1)C(=O)Nc1ccc(Cl)cc1Cl [1-(n-Heptyl)-1-(4-n-butylbenzyl)-3-(2,4-dichlorophenyl)urea]",response vs control in vivo at 0.03 %,[1]; [3],50%
same,response vs control in vivo at 0.03 %,[1]; [4],58%
same,inhibition at 5.2 µg/mL,[2]; [5],80%
"CCCCCCCN(Cc1ccc(CCCC)cc1)C(=O)Nc1ccc(C)cc1C [1-(n-Heptyl)-1-(4-n-butylbenzyl)-3-(2,4-dimethylphenyl)urea]",response vs control in vivo at 0.03 %,[1]; [3],14%
same,response vs control in vivo at 0.03 %,[1]; [4],46%
same,inhibition at 5.2 µg/mL,[2]; [5],94.8%
CCCCCCCN(Cc1ccc(CCCC)cc1)C(=O)Nc1ccc(Cl)cc1C [1-(n-Heptyl)-1-(4-n-butylbenzyl)-3-(2-methyl-4-chlorophenyl)urea],response vs control in vivo at 0.03 %,[1]; [3],16%
same,response vs control in vivo at 0.03 %,[1]; [4],35%
same,inhibition at 5.2 µg/mL,[2]; [5],92.5%
CCCCCCCN(Cc1ccc(CCCC)cc1)C(=O)Nc1ccccc1C [1-(n-Heptyl)-1-(4-n-butylbenzyl)-3-(2-methylphenyl)urea],response vs control in vivo at 0.03 %,[1]; [3],29%
same,response vs control in vivo at 0.03 %,[1]; [4],35%
same,inhibition at 5.2 µg/mL,[2]; [5],97.4%
CCCCCCCN(Cc1ccc(CCCC)cc1)C(=O)Nc1ccc(Cl)cc1C(F)(F)F [1-(n-Heptyl)-1-(4-n-butylbenzyl)-3-(2-trifluoromethyl-4-chlorophenyl)urea],response vs control in vivo at 0.03 %,[1]; [3],47%
same,response vs control in vivo at 0.03 %,[1]; [4],63%
same,inhibition at 5.2 µg/mL,[2],90%
CCCCCCCN(Cc1ccc(CCCC)cc1)C(=O)Nc1cccc(C)c1 [1-(n-Heptyl)-1-(4-n-butylbenzyl)-3-(3-methylphenyl)urea],response vs control in vivo at 0.03 %,[1]; [3],42%
same,response vs control in vivo at 0.03 %,[1]; [4],49%
same,inhibition at 5.2 µg/mL,[2]; [5],93.8%
CCCCCCCN(Cc1ccc(CCCC)cc1)C(=O)Nc1ccc(C(=O)OCC)cc1 [1-(n-Heptyl)-1-(4-n-butylbenzyl)-3-(4-carboethoxyphenyl)urea],response vs control in vivo at 0.03 %,[1]; [3],84%
same,response vs control in vivo at 0.03 %,[1]; [4],88%
same,inhibition at 5.2 µg/mL,[2]; [5],92.4%
"CCCCCCCN(Cc1ccc(CCCC(=O)OCC)cc1)C(=O)Nc1c(C)cc(Cl)cc1C [1-(n-Heptyl)-1-[4-(3-carboethoxypropyl)benzyl]-3-(4-chloro-2,6-dimethylphenyl)urea]",response vs control in vivo at 0.01 %,[1]; [3],65%
same,response vs control in vivo at 0.01 %,[1]; [4],55%
same,pIC50,[2]; rat adrenal ACAT,5.97
"CCCCCCCN(Cc1ccc(CCCCCl)cc1)C(=O)Nc1c(C)cc(Cl)cc1C [1-(n-Heptyl)-1-[4-(4-chlorobutyl)benzyl]-3-(4-chloro-2,6-dimethylphenyl)urea]",response vs control in vivo at 0.03 %,[1]; [3],18%
same,response vs control in vivo at 0.03 %,[1]; [4],19%
same,pIC50,[2]; rat adrenal ACAT,6.96
"CCCCCCCN(Cc1ccc(CCCCO)cc1)C(=O)Nc1c(C)cc(Cl)cc1C [1-(n-Heptyl)-1-[4-(4-hydroxybutyl)benzyl]-3-(4-chloro-2,6-dimethylphenyl)urea]",response vs control in vivo at 0.01 %,[1]; [3],26%
same,response vs control in vivo at 0.01 %,[1]; [4],24%
same,pIC50,[2]; rat adrenal ACAT,6.09
CCCCCCCN(Cc1ccc(CCC(C)C)cc1)C(=O)Nc1ccc(Cl)cc1C [1-(n-Heptyl)-1-[4-(4-isopentyl)benzyl]-3-(4-chloro-2-methylphenyl)urea],response vs control in vivo at 0.01 %,[1]; [3],17%
same,response vs control in vivo at 0.01 %,[1]; [4],20%
same,pIC50,[2]; rat adrenal ACAT,5.62
CCCCCCCN(Cc1ccc(CC(C)C)cc1)C(=O)Nc1ccc(Cl)cc1C [1-(n-Heptyl)-1-[4-(isobutyl)benzyl]-3-(4-chloro-2-methylphenyl)urea],response vs control in vivo at 0.01 %,[1]; [3],56%
same,response vs control in vivo at 0.01 %,[1]; [4],62%
same,pIC50,[2]; rat adrenal ACAT,5.74
"CCCCCCCN(Cc1ccc(CCC(C)C)cc1)C(=O)Nc1c(C)cc(Cl)cc1C [1-(n-Heptyl)-1-[4-(isopentyl)benzyl]-3-(4-chloro-2,6-dimethylphenyl)urea]",response vs control in vivo at 0.01 %,[1]; [3],10%
same,response vs control in vivo at 0.01 %,[1]; [4],17%
same,pIC50,[2]; rat adrenal ACAT,6.89
"CCCCCCCN(Cc1ccc(C(C)C)cc1)C(=O)Nc1c(F)cc(F)cc1F [1-(n-Heptyl)-1-[4-(isopropyl)benzyl]-3-(2,4,6-trifluorophenyl)urea]",response vs control in vivo at 0.01 %,[1]; [3],23%
same,response vs control in vivo at 0.01 %,[1]; [4],40%
same,pIC50,[2]; rat adrenal ACAT,6.46
"CCCCCCCN(Cc1ccc(C(C)C)cc1)C(=O)Nc1ccc(F)cc1F [1-(n-Heptyl)-1-[4-(isopropyl)benzyl]-3-(2,4-difluorophenyl)urea]",response vs control in vivo at 0.01 %,[1]; [3],64%
same,response vs control in vivo at 0.01 %,[1]; [4],77%
same,pIC50,[2]; rat adrenal ACAT,5.93
"CCCCCCCN(Cc1ccc(C(C)C)cc1)C(=O)Nc1c(C)cc(Cl)cc1C [1-(n-Heptyl)-1-[4-(isopropyl)benzyl]-3-(4-chloro-2,6-dimethylphenyl)urea]",response vs control in vivo at 0.01 %,[1]; [3],20%
same,response vs control in vivo at 0.01 %,[1]; [4],35%
same,pIC50,[2]; rat adrenal ACAT,6.70
CCCCCCCN(Cc1ccc(C(C)C)cc1)C(=O)Nc1ccc(Cl)cc1C [1-(n-Heptyl)-1-[4-(isopropyl)benzyl]-3-(4-chloro-2-methylphenyl)urea],response vs control in vivo at 0.01 %,[1]; [3],75%
same,response vs control in vivo at 0.01 %,[1]; [4],60%
same,pIC50,[2]; rat adrenal ACAT,5.76
"CCCCCCCN(Cc1ccc(CCCC)cc1)C(=O)Nc1cc(C)c(Cl)cc1C [1-(n-Heptyl)-1-[4-(n-butyl)benzyl]-3-(4-chloro-2,5-dimethylphenyl)urea]",response vs control in vivo at 0.03 %,[1]; [3],19%
same,response vs control in vivo at 0.03 %,[1]; [4],48%
same,inhibition at 5.2 µg/mL,[2],90%
"CCCCCCCN(Cc1ccc(CCCC)cc1)C(=O)Nc1c(C)cc(Cl)cc1C [1-(n-Heptyl)-1-[4-(n-butyl)benzyl]-3-(4-chloro-2,6-dimethylphenyl)urea]",response vs control in vivo at 0.03 %,[1]; [3],11%
same,response vs control in vivo at 0.03 %,[1]; [4],31%
same,inhibition at 5.2 µg/mL,[2],90%
"CCCCCCCN(Cc1ccc(OCCCC)cc1)C(=O)Nc1ccc(Cl)cc1Cl [1-(n-Heptyl)-(4-n-butoxybenzyl)-3-(2,4-dichlorophenyl)urea]",response vs control in vivo at 0.03 %,[1]; [3],50%
same,response vs control in vivo at 0.03 %,[1]; [4],68%
same,inhibition at 5.2 µg/mL,[2]; [5],79.9%
CCCCCCCN(Cc1ccc(OCCCC)cc1)C(=O)Nc1ccc(Cl)cc1C(F)(F)F [1-(n-Heptyl)-(4-n-butoxybenzyl)-3-(2-trifluoromethyl-4-chlorophenyl)urea],response vs control in vivo at 0.03 %,[1]; [3],35%
same,response vs control in vivo at 0.03 %,[1]; [4],59%
same,inhibition at 5.2 µg/mL,[2]; [5],89.4%
"Cc1ccc(NC(=O)N(Cc2ccccc2)C(Cc2ccccc2)c2ccccc2)c(C)c1 (stereo not drawn) [1-Benzyl-1-(1,2-diphenylethyl)-3-(2,4-dimethylphenyl)urea]",response vs control in vivo at 0.03 %,[1]; [3],63%
same,response vs control in vivo at 0.03 %,[1]; [4],52%
same,inhibition at 5.2 µg/mL,[2]; [5],95%
"CCCCOc1ccc(CN(Cc2ccccc2)C(=O)Nc2cc(C)c(C)cc2C)cc1 [1-Benzyl-1-(4-butyloxybenzyl)-3-(2,4,5-trimethylphenyl)urea]",response vs control in vivo at 0.03 %,[1]; [3],12%
same,response vs control in vivo at 0.03 %,[1]; [4],43%
same,inhibition at 5.2 µg/mL,[2]; [5],95.8%
"CCCCOc1ccc(CN(Cc2ccccc2)C(=O)Nc2ccc(C)cc2C)cc1 [1-Benzyl-1-(4-butyloxybenzyl)-3-(2,4-dimethylphenyl)urea]",response vs control in vivo at 0.03 %,[1]; [3],15%
same,response vs control in vivo at 0.03 %,[1]; [4],48%
same,inhibition at 5.2 µg/mL,[2]; [5],91.7%
"CCCCOc1ccc(CN(Cc2ccccc2)C(=O)Nc2c(Cl)cc(Cl)cc2Cl)cc1 [1-Benzyl-1-(4-n-butoxybenzyl)-3-(2,4,6-trichlorophenyl)urea]",response vs control in vivo at 0.03 %,[1]; [3],8%
same,response vs control in vivo at 0.03 %,[1]; [4],40%
same,inhibition at 5.2 µg/mL,[2]; [5],95.2%
"CCCCOc1ccc(CN(Cc2ccccc2)C(=O)Nc2ccc(Cl)cc2Cl)cc1 [1-Benzyl-1-(4-n-butoxybenzyl)-3-(2,4-dichlorophenyl)urea]",response vs control in vivo at 0.03 %,[1]; [3],49%
same,response vs control in vivo at 0.03 %,[1]; [4],53%
same,inhibition at 5.2 µg/mL,[2]; [5],80%
"CCCCOc1ccc(CN(Cc2ccccc2)C(=O)Nc2ccc(F)cc2F)cc1 [1-Benzyl-1-(4-n-butoxybenzyl)-3-(2,4-difluorophenyl)urea]",response vs control in vivo at 0.03 %,[1]; [3],22%
same,response vs control in vivo at 0.03 %,[1]; [4],53%
same,inhibition at 5.2 µg/mL,[2]; [5],88%
CCCCOc1ccc(CN(Cc2ccccc2)C(=O)Nc2ccc(Cl)cc2C(F)(F)F)cc1 [1-Benzyl-1-(4-n-butoxybenzyl)-3-(2-trifluoromethyl-4-chlorophenyl)urea],response vs control in vivo at 0.03 %,[1]; [3],31%
same,response vs control in vivo at 0.03 %,[1]; [4],58%
same,inhibition at 5.2 µg/mL,[2]; [5],85%
